# Measured values: patent publication US7629470B2, “Formation of tetra-substituted enamides and stereoselective reduction thereof” (Merck & Co., Inc., priority 2004, dated 2009)
# Test: Solubility of chiral amide in IPA
# Assay type: physicochemical
# Conditions: organic solvent or mixture; in IPA (isopropyl alcohol); grams of chiral amide per liter of solvent; concentration up to 45° C. under vacuum
# Procedure: After the hydrogenation was complete (Example 8), 64.9 g of solution was concentrated to 16.9 g up to 45° C. under vacuum. […] MTBE (348.2 g) was added, and the solution was washed with 250 mL of 10% NH4Cl solution. The organic solution was then washed an additional 3 times with water (248 mL for each wash). The residual organic solution was concentrated with MTBE (284.4 g) to azeotrope the water. The solution was concentrated to 53±5 g/kg. The final water concentration was 532 ppm. This solution was then seeded with chiral amide MTBE hemisolvate, 0.5 wt. %, and aged for 20 hours at 20-25° C. At this point, heptane was charge in three aliquots over specific periods of time. The first aliquot of heptane (54 mL), was charged in 9 hours. The second aliquot of heptane (90 mL) was charged in 6 hours. The third aliquot of heptane (294 mL) was charged in 3 hours. At the conclusion of the heptane charge, the solution was aged at 20-25° C. for 2 hours. The solution was filtered over a 5 micron fritted filter. A displacement wash was conducted using 164 mL of 5:1 n-heptane/MTBE, and the solids were dried at less than 45° C. under vacuum. The final water concentration was <0.5 wt. % (by KF). The final MTBE concentration was 11-12 wt. % (as a hemisolvate) and the final heptane concentration was <0.5 wt. % (both by GC). The chiral amide/MTBE hemisolvate was isolated in 90% yield, 99.3 LCAP.
compound,measurement,value
"C[C@H](NC(=O)C(C)(C)Oc1ccc(C(F)(F)F)cn1)[C@@H](Cc1ccc(Cl)cc1)c1cccc(C(N)=O)c1 [chiral amide, 3-{(1S,2S)-1-(4-chlorobenzyl)-2-[(2-methyl-2-{[5-(trifluoromethyl)pyridine-2-yl]oxy}propanoyl)amino]-propyl}benzamide]",solubility,> 1350 mg/mL
